According to patent US7244738B2, “Arylamine-substituted quinazolinone compounds useful as alpha 1A/B adrenergic receptor antagonists” (Roche Palo Alto LLC, priority 2003, dated 2007):

Legend:
alpha1B adrenoceptor = molecular target: T1, alpha1B adrenoceptor (Homo sapiens, UniProt P35368); experiment: [3H]prazosin binding (alpha1-adrenoceptor) assay, membranes of transfected CHO-K1 cells; settings: transfected CHO-K1 cell membranes, read-out: pKi alpha 1B (converted)
T1 construct: expressed in transfected cells; host or cells: CHO-K1
T1 sequence (P35368 1-520): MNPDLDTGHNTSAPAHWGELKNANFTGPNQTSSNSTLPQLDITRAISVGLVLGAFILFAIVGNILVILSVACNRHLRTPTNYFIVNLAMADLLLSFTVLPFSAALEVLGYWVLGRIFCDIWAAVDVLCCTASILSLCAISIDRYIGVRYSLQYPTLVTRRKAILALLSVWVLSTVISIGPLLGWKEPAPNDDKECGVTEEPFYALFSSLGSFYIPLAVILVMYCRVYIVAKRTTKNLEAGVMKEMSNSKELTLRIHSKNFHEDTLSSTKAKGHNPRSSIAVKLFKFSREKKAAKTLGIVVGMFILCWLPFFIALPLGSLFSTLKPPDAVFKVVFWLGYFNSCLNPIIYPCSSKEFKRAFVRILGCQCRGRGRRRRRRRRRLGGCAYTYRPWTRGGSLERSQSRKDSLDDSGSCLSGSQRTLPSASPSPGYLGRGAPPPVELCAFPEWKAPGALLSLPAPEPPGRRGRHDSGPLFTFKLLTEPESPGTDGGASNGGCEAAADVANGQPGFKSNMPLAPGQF
Protocol: (§1) Example [^3H]prazosin Binding (Alpha1-Adrenoceptor) Assay
(§2) Alpha1A, alpha1B, and alpha1D adrenoceptor transfected CHO-K1 cells, prepared using the methods described by Chang et al., FEBS Lett. 1998, 422:279–283, were grown to confluence in T-162 tissue culture flasks in Ham's F-12 culture medium supplemented with 10% fetal bovine serum, geneticin (150 μg/mL) and streptomycin/penicillin (30 μg/mL/30 μg/mL) at 37° C. in 7% CO2. Cells were harvested by incubating with phosphate-buffered saline (PBS) containing 30 μM EDTA for 5–10 min at 37° C. Cells were pelleted by centrifuging at 500×g for 5 min, and the pelleted cells were homogenized (Polytron homogenizer) in 10 vols (w/v) of 50 mM Tris, 1 mM EDTA, (homogenisation buffer, pH 7.4 at 4° C.). The homogenate was centrifuged at 45,000×g for 20 min. The pellet was resuspended in the homogenizing buffer and rehomogenized. The resulting homogenate was centrifuged at 45,000×g for 20 min. The pellet was resuspended in 50 mM Tris buffer (pH 7.4 at 4° C.), aliquoted, frozen, and stored at −80° C. for further use.
(§3) The membranes were thawed at room temperature and diluted in assay buffer (50 mM Tris buffer at […]) at 37° C. and homogenized using the Polytron tissue disrupter. The membranes were incubated with the radioligand ([^3H]prazosin, NEN, 0.1–0.5 nM) and test compound at 37° C. for 30 min. The membranes were then filtered over polyethyleneimine-treated GF/B unifilter plates using a Packard Filtermate Harvester and washed with ice-cold 50 mM Tris-HCl, 1 mM EDTA buffer (3×3 sec. washes). Scintillation cocktail was added to the filter plates and bound radioligand determined by liquid scintillation spectrophotometry.
(§4) For each experiment, total binding (in the absence of any test or reference compounds) and non-specific binding (10 μM phentolamine) were determined. For each sample tested, the concentration producing 50% inhibition of binding (IC50) and Hill Slope (nH) was determined using iterative non-linear curve fitting techniques with Kaleidagraph (Synergy Software) or other appropriate software. If the radioligand KD was known, the inhibition dissociation constant (KI) of each ligand was determined according to the method of Cheng and Prusoff (Cheng, Y-C. and Prusoff, W. H., Biochem. Pharmacol., 1973, 22, 3099–3108).

alpha1D adrenoceptor = molecular target: T2, alpha1D adrenoceptor (Homo sapiens, UniProt P25100); experiment: as above; settings: transfected CHO-K1 cell membranes, read-out: pKi alpha 1D (converted)
T2 construct: expressed in transfected cells; host or cells: CHO-K1
T2 sequence (P25100 1-572): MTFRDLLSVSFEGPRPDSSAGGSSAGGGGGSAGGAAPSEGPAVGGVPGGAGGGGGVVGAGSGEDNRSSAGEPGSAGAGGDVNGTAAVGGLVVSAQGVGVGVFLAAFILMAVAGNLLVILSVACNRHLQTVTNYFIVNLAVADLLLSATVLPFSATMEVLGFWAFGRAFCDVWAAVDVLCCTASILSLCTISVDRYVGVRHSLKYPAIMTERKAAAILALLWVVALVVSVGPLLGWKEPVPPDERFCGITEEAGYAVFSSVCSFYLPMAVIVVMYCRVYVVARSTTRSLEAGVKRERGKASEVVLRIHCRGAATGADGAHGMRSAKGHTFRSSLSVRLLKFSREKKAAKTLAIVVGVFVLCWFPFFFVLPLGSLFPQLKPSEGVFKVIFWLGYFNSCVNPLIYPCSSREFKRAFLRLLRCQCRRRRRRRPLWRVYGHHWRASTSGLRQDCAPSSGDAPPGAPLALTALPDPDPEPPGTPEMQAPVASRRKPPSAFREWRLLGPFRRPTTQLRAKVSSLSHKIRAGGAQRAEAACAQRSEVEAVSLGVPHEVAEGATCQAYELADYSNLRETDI
Protocol: as §1, §2, §3, §4

Alpha1A adrenoceptor = molecular target: T3, Alpha1A adrenoceptor (Homo sapiens, UniProt P35348); experiment: as above; settings: transfected CHO-K1 cell membranes, read-out: pKi alpha 1A (converted)
T3 construct: expressed in transfected cells; host or cells: CHO-K1
T3 sequence (P35348 1-466): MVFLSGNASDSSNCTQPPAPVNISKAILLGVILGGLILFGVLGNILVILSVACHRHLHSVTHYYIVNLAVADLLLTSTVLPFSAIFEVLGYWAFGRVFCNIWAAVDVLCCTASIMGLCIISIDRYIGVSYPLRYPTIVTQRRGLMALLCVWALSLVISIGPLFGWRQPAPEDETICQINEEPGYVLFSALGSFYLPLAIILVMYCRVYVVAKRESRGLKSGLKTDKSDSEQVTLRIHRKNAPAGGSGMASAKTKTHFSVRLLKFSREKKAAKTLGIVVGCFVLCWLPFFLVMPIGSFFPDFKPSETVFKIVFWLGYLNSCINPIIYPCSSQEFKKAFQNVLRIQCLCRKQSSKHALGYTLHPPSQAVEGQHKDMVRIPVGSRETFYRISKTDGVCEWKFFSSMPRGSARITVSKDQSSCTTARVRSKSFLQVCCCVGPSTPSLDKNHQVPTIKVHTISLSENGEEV
Protocol: as §1, §2, §3, §4

## COc1cc2[nH]c(NCc3cccc(N=C(C)N(C)C)c3)nc(=O)c2c(C)c1OC
alpha1B adrenoceptor
  Ki: 0.891 nM
alpha1D adrenoceptor
  Ki: 69.2 nM
Alpha1A adrenoceptor
  Ki: 7.41 nM

## COc1cc2[nH]c(N(C)Cc3cccc(Oc4ncccn4)c3)nc(=O)c2c(OC)c1OC [Example F-16, 5,6,7-Trimethoxy-2-{methyl-[3-(pyrimidin-2-yloxy)-benzyl]-amino}-1H-quinazolin-4-one]
other
  melting point: 191 to 192.9 °C

## COc1cc2[nH]c(N(C)Cc3cccc(NS(C)(=O)=O)c3)nc(=O)c2c(C(C)C)c1OC [Example G-2, N-(3-{[(5-Isopropyl-6,7-dimethoxy-4-oxo-1,4-dihydro-quinazolin-2-yl)-methyl-amino]-methyl}-phenyl)-methanesulfonamide]
other
  melting point: 215 to 217 °C

## COc1cc2[nH]c(N(C)Cc3cccc(NCCO)c3)nc(=O)c2c(OC)c1OC [Example G-16, 2-{[3-(2-Hydroxy-ethylamino)-benzyl]-methyl-amino}-5,6,7-trimethoxy-1H-quinazolin-4-one]
other
  melting point: 60.5 to 61.4 °C

## COc1cc2[nH]c(N(C)Cc3cccc(NCCCO)c3)nc(=O)c2c(OC)c1OC [Example G-18, 2-{[3-(3-Hydroxy-propylamino)-benzyl]-methyl-amino}-5,6,7-trimethoxy-1H-quinazolin-4-one]
other
  melting point: 47 to 48.5 °C

## COCCNc1cccc(CN(C)c2nc(=O)c3c(OC)c(OC)c(OC)cc3[nH]2)c1 [Example G-19, 5,6,7-Trimethoxy-2-{[3-(2-methoxy-ethylamino)-benzyl]-methyl-amino}-1H-quinazolin-4-one]
other
  melting point: 178.9 to 179.9 °C

## COCCN(C)c1cccc(CN(C)c2nc(=O)c3c(OC)c(OC)c(OC)cc3[nH]2)c1 [Example G-20, 5,6,7-Trimethoxy-2-({3-[(2-methoxy-ethyl)-methyl-amino]-benzyl}-methyl-amino)-1H-quinazolin-4-one]
other
  melting point: 179.3 to 181.2 °C

## COc1cc2[nH]c(N(C)Cc3cccc(NC(C)=N)c3)nc(=O)c2c(C)c1OC [Example G-26, N-(3-{[(6,7-Dimethoxy-5-methyl-4-oxo-1,4-dihydro-quinazolin-2-yl)-methyl-amino]-methyl}-phenyl)-acetamidine]
other
  melting point: 155 to 158 °C

## COc1cc2[nH]c(N(C)Cc3cccc(N=CN(C)C)c3)nc(=O)c2c(C)c1OC [Example G-30, N′-(3-{[(6,7-Dimethoxy-5-methyl-4-oxo-1,4-dihydro-quinazolin-2-yl)-methyl-amino]-methyl}-phenyl)-N,N-dimethyl-formamidine]
other
  melting point: 185 to 186 °C

## COc1cc2[nH]c(N(C)Cc3cccc(N=C(C(C)C)N(C)C)c3)nc(=O)c2c(OC)c1OC [Example G-32, N,N-Dimethyl-N′-(3-{[methyl-(5,6,7-trimethoxy-4-oxo-1,4-dihydro-quinazolin-2-yl)-amino]-methyl}-phenyl)-isobutyramidine]
other
  melting point: 148 to 150 °C

## CCc1c(OC)c(OC)cc2[nH]c(N(C)Cc3cccc(N=C(C)N(C)C)c3)nc(=O)c12 [Example G-33, N′-(3-{[(5-Ethyl-6,7-dimethoxy-4-oxo-1,4-dihydro-quinazolin-2-yl)-methyl-amino]-methyl}-phenyl)-N,N-dimethyl-acetamidine]
other
  melting point: 224.6 to 225.5 °C

## COCCC(=Nc1cccc(CN(C)c2nc(=O)c3c(OC)c(OC)c(OC)cc3[nH]2)c1)N(C)C [Example G-36, 3-Methoxy-N,N-dimethyl-N′-(3-{[methyl-(5,6,7-trimethoxy-4-oxo-1,4-dihydro-quinazolin-2-yl)-amino]-methyl}-phenyl)-propionamidine]
other
  melting point: 145 °C

## COc1cc2[nH]c(N(C)Cc3cccc(N=C4NCCN4)c3)nc(=O)c2c(C)c1OC [Example G-38, 2-{[3-(Imidazolidin-2-ylideneamino)-benzyl]-methyl-amino}-6,7-dimethoxy-5-methyl-1H-quinazolin-4-one]
other
  melting point: 141.3 to 144.7 °C

## COc1cc2[nH]c(N(C)Cc3cccc(N=C4CCCN4C)c3)nc(=O)c2c(OC)c1OC [Example G-39, 5,6,7-Trimethoxy-2-{methyl-[3-(1-methyl-pyrrolidin-2-ylideneamino)-benzyl]-amino}-1H-quinazolin-4-one]
other
  melting point: 130 to 133 °C

## COc1cc2[nH]c(N(C)Cc3cccc(NC4=NCCC4)c3)nc(=O)c2c(C)c1OC [Example G-42, 2-{[3-(4,5-Dihydro-3H-pyrrol-2-ylamino)-benzyl]-methyl-amino}-6,7-dimethoxy-5-methyl-1H-quinazolin-4-one]
other
  melting point: 175.4 to 177.2 °C

## COc1cc2[nH]c(N(C)Cc3cccc(NC4=NCCC4)c3)nc(=O)c2c(OC)c1OC [Example G-43, 2-{[3-(4,5-Dihydro-3H-pyrrol-2-ylamino)-benzyl]-methyl-amino}-5,6,7-trimethoxy-1H-quinazolin-4-one]
other
  melting point: 207 to 209 °C

## COc1cc2nc(N(C)Cc3cccc(N4CCCC4=O)c3)[nH]c(=O)c2c(OC)c1OC [Example H-1, 5,6,7-Trimethoxy-2-{methyl-[3-(2-oxo-pyrrolidin-1-yl)-benzyl]-amino}-1H-quinazolin-4-one]
other
  melting point: 165.5 to 166.5 °C

## COc1cc2nc(N(C)Cc3cccc(C4=NCCN4C)c3)[nH]c(=O)c2c(C)c1OC [Example H-2, 6,7-Dimethoxy-5-methyl-2-{methyl-[3-(1-methyl-4,5-dihydro-1H-imidazol-2-yl)-benzyl]-amino}-1H-quinazolin-4-one]
other
  melting point: 145 to 148 °C

## COc1cc2nc(N(C)Cc3cccc(C4CCN(C)CC4)c3)[nH]c(=O)c2c(C)c1OC [Example H-3, 6,7-Dimethoxy-5-methyl-2-{methyl-[3-(1-methyl-piperidin-4-yl)-benzyl]-amino}-1H-quinazolin-4-one]
other
  melting point: 155.7 to 158 °C

## COc1cc2[nH]c(N(C)Cc3cccc(N4CCN=C4C)c3)nc(=O)c2c(C)c1OC [Example H-6, 6,7-Dimethoxy-5-methyl-2-{methyl-[3-(2-methyl-4,5-dihydro-imidazol-1-yl)-benzyl]-amino}-1H-quinazolin-4-one]
other
  melting point: 177 to 180 °C
